Experiment [1] concerns Tetranychus urticae (two-spotted spider mite). Nature of the experiment: Example B4: activity against Tetranychus urticae, sprayed bean leaf discs (feeding/residual contact, preventive). The conditions noted are these: foliar, 192 h, read-out: activity (egg, larval and adult mortality).
For experiment [2], the system named is Myzus persicae (green peach aphid). Description: Example B2: activity against Myzus persicae, pea seedling roots in test solution (systemic/feeding, curative). The conditions noted are these: 144 h, read-out: activity (mortality).
For experiment [3] the test system is unchanged. Description: Example B1: activity against Myzus persicae, sprayed sunflower leaf discs (feeding/residual contact, preventive). The conditions noted are these: foliar, 144 h, read-out: activity (mortality).
The subject of experiment [4] is Nilaparvata lugens (brown rice planthopper). Description: Example B8: activity against Nilaparvata lugens, sprayed rice seedlings (larvicide, feeding/contact). The conditions noted are these: in Oryza sativa, read-out: activity (mortality, growth regulation, effects on F1 generation).
In experiment [5] the test system is Myzus persicae (green peach aphid). Description: Example B17: activity against Myzus persicae on sprayed pepper plants (feeding/residual contact). It is filed as in vivo. The conditions noted are these: 144 h, infested pepper plants sprayed, 6 days.
Experiment [6] shares this test system. Description: Example B13: drench activity against Myzus persicae, pea seedlings in field soil. The conditions noted are these: 168 h, read-out: drench activity (mortality).
The test system of experiment [7] is Aphis Craccivora (cowpea aphid). Nature of the experiment: Example B11: translaminar activity against Aphis craccivora on French bean leaves. It is filed as in vivo. The conditions noted are these: 120 h, upper leaf side painted, aphids on lower side, 5 days. How it is done: Translaminar Activity Against Aphis Craccivora (Cowpea Aphid)
French bean leaves (Phaseolus vulgaris) are infested with about 20 mixed age individuals on the lower leaf side using clip cages. 1 day after the infestation, the upper side of the leaves is treated with the test solution by painting. 5 days later, samples are checked for mortality.

Each structure is given as a SMILES string.

For the molecule `CCOC(=O)OC1=C(c2c(C)cc(C)cc2C)C(=O)N(OC(=O)C2CC2)C12CCN(OC)CC2` [P1.16], the mortality at 400 ppm in experiment [1] and in experiment [2] was over 80% throughout.
Consider `CCOC(=O)OC1=C(c2cc(Br)ccc2C)C(=O)N(OCOC)C12CCN(OC)CC2` [P1.21], for which the mortality at 400 ppm in experiment [1] is over 80%.
As for `CCOC(=O)OC1=C(c2cc(-c3ccc(Cl)cc3)ccc2C)C(=O)N(OCOC)C12CCN(OC)CC2` [P1.22], the mortality at 400 ppm in experiment [1] and in experiment [3] was over 80% in each case.
In the case of `CCOC(=O)OC1=C(c2c(C)cc(C)cc2C)C(=O)N(OC2CCCC2)C12CCN(OC)CC2` [P1.28], the mortality at 400 ppm in experiment [1] and in experiment [4] was over 80% throughout.
`C#CCON1C(=O)C(c2c(C)cc(C)cc2C)=C(OC(=O)OCC)C12CCN(OC)CC2` [P1.29]: the mortality at 400 ppm in experiment [1], in experiment [3] and in experiment [2] was over 80% each time.
As to `CCOC(=O)OC1=C(c2c(Cl)ccc(C)c2F)C(=O)N(OC2CCCO2)C12CCN(OC)CC2` (stereo not drawn) [P1.43], the mortality at 400 ppm in experiment [1] and in experiment [2] was over 80% each time.
As for `CCOC(=O)OC1=C(c2c(C)cc(C)cc2C)C(=O)N(OCCCOC)C12CCN(OC)CC2` [P1.44], the mortality at 400 ppm in experiment [1], in experiment [3] and in experiment [2] was over 80% throughout. In addition, the mortality at 200 ppm in experiment [5] is at least 80%.
Regarding `CCOC(=O)OC1=C(c2cc(C)c(C)cc2C)C(=O)N(OC2CCCO2)C12CCN(OC)CC2` (stereo not drawn) [P1.54], the mortality at 400 ppm in experiment [1] and in experiment [3] was over 80% throughout.
As to `CCOC(=O)OC1=C(c2cc(C)c(C)cc2C)C(=O)N(OCOC)C12CCN(OC)CC2` [P1.56], the mortality at 400 ppm in experiment [1], in experiment [3] and in experiment [2] was over 80% throughout. The same molecule had a mortality at 200 ppm in experiment [5] of at least 80%.
`CCOC(=O)OC1=C(c2c(C)cc(C)cc2Br)C(=O)N(OC2CCCO2)C12CCN(OC)CC2` (stereo not drawn) [P1.69]: the mortality at 400 ppm in experiment [1], in experiment [3] and in experiment [2] was over 80% throughout. This molecule registered a mortality at 200 ppm in experiment [5] of at least 80%.
As to `CCOC(=O)OC1=C(c2c(C)cc(C)cc2C)C(=O)N(OC2CCOCC2)C12CCN(OC)CC2` [P1.76], the mortality at 400 ppm in experiment [1] and in experiment [2] was over 80% each time. In experiment [5], this molecule had a mortality at 200 ppm of at least 80%.
With `CCOC(=O)OC1=C(c2c(C)cc(C)cc2C)C(=O)N(OCc2ccoc2)C12CCN(OC)CC2` [P1.77], the mortality at 400 ppm in experiment [1] and in experiment [2] was over 80% in each case. For the same molecule, in experiment [5], the mortality at 200 ppm is at least 80%.
Turning to `CCOC(=O)OC1=C(c2c(C)cc(C)cc2C)C(=O)N(OCC2CCSCC2)C12CCN(OC)CC2` [P1.80], the mortality at 400 ppm in experiment [1] is over 80%.
With `CCOC(=O)OC1=C(c2c(C)cc(C)cc2C)C(=O)N(OCC2CCCC2)C12CCN(OC)CC2` [P1.83], the mortality at 400 ppm in experiment [1] and in experiment [2] was over 80% each time. In experiment [5], this molecule gave a mortality at 200 ppm of at least 80%.
As to `CCOC(=O)OC1=C(c2c(C)cc(C)cc2C)C(=O)N(OCC2(CC)COC2)C12CCN(OC)CC2` [P1.84], the mortality at 400 ppm in experiment [1] and in experiment [2] was over 80% throughout.
Take `CCOC(=O)OC1=C(c2cc(Br)c(C)cc2C)C(=O)N(OCOC)C12CCN(OC)CC2` [P1.87]: the mortality at 400 ppm in experiment [1] was over 80%.
As for `CCOC(=O)OC1=C(c2c(C)cc(Br)cc2C)C(=O)N(OC)C12CCN(OC)CC2` [P1.88], the mortality at 400 ppm in experiment [1], in experiment [4], in experiment [3] and in experiment [2] was over 80% throughout. Besides, in experiment [5], the mortality at 200 ppm was at least 80%. Moreover, the mortality at 25 ppm in experiment [6] was over 80%.
Turning to `CCOC(=O)OC1=C(c2c(C)cc(C)cc2C)C(=O)N(OC2CCN(OC)CC2)C12CCN(OC)CC2` [P1.104], the mortality at 400 ppm in experiment [1] and in experiment [2] was over 80% in each case.
With `CCOC(=O)OC1=C(c2c(C)cc(C)cc2C)C(=O)N(OCC2CCCCC2)C12CCN(OC)CC2` [P1.105], the mortality at 400 ppm in experiment [1] was over 80%.
In the case of `CCOC(=O)OC1=C(c2c(C)cc(C)cc2C)C(=O)N(OCC2CCC2)C12CCN(OC)CC2` [P1.106], the mortality at 400 ppm in experiment [1], in experiment [3] and in experiment [2] was over 80% throughout. In addition, in experiment [5], the mortality at 200 ppm was at least 80%.
For the molecule `CCOC(=O)OC1=C(c2c(C)cc(C)cc2C)C(=O)N(OCC2CCCOC2)C12CCN(OC)CC2` (stereo not drawn) [P1.109], the mortality at 400 ppm in experiment [1], in experiment [3] and in experiment [2] was over 80% throughout.
On to `CON1CCC2(CC1)C(O)=C(c1cc(C)ccc1C)C(=O)N2OC` [P2.1], for which the mortality at 400 ppm in experiment [3] and in experiment [2] was over 80% each time. Besides, the mortality at 25 ppm in experiment [6] is over 80%.
On to `COCCON1C(=O)C(c2cc(C)ccc2C)=C(O)C12CCN(OC)CC2` [P2.3], for which the mortality at 400 ppm in experiment [4], in experiment [7], in experiment [3] and in experiment [2] was over 80% each time. Further, the mortality at 200 ppm in experiment [5] was at least 80%. In addition, in experiment [6], the mortality at 25 ppm is over 80%.
As to `COCON1C(=O)C(c2cc(-c3ccc(Cl)cc3)ccc2C)=C(O)C12CCN(OC)CC2` [P2.17], the mortality at 400 ppm in experiment [1] and in experiment [3] was over 80% each time.
For the molecule `CON1CCC2(CC1)C(O)=C(c1c(C)cc(C)cc1C)C(=O)N2OC1CCCC1` [P2.25], the mortality at 400 ppm in experiment [1], in experiment [4], in experiment [3] and in experiment [2] was over 80% each time.
Take `CON1CCC2(CC1)C(O)=C(c1c(C)cc(C)cc1C)C(=O)N2OC1CCCCC1` [P2.26, 1-Cyclohexyloxy-4-hydroxy-8-methoxy-3-(2,4,6-trimethyl-phenyl)-1,8-diaza-spiro[4.5]dec-3-en-2-one]: the mortality at 400 ppm in experiment [1] is over 80%.
Consider `CON1CCC2(CC1)C(O)=C(c1cc(C)c(Cl)cc1C)C(=O)N2OC` [P2.31], for which the mortality at 400 ppm in experiment [1] and in experiment [3] was over 80% each time.
Take `COCCON1C(=O)C(c2c(C)cc(C)cc2Cl)=C(O)C12CCN(OC)CC2` [P2.35]: the mortality at 400 ppm in experiment [1], in experiment [3] and in experiment [2] was over 80% throughout.
Take `CON1CCC2(CC1)C(O)=C(c1c(Cl)ccc(C)c1F)C(=O)N2OC1CCCO1` (stereo not drawn) [P2.45]: the mortality at 400 ppm in experiment [1] was over 80%.
Take `CON1CCC2(CC1)C(O)=C(c1c(Cl)ccc(C)c1F)C(=O)N2OC` [P2.48]: the mortality at 400 ppm in experiment [1] and in experiment [2] was over 80% each time.
On to `CON1CCC2(CC1)C(O)=C(c1c(F)ccc(C)c1Cl)C(=O)N2OC` [P2.58], for which the mortality at 400 ppm in experiment [1] and in experiment [2] was over 80% in each case.
Regarding `CON1CCC2(CC1)C(O)=C(c1c(C)cc(C)cc1C)C(=O)N2OC1CCCCO1` (stereo not drawn) [P2.65], the mortality at 400 ppm in experiment [1], in experiment [3] and in experiment [2] was over 80% throughout. The molecule also came in with a mortality at 200 ppm in experiment [5] of at least 80%.
Take `CON1CCC2(CC1)C(O)=C(c1c(C)cc(C)cc1Br)C(=O)N2OC1CCCO1` (stereo not drawn) [P2.69]: the mortality at 400 ppm in experiment [1], in experiment [3] and in experiment [2] was over 80% in each case. The same molecule displayed a mortality at 200 ppm in experiment [5] of at least 80%.
Take `CON1CCC2(CC1)C(O)=C(c1cc(Br)c(C)cc1C)C(=O)N2OC1CCCO1` (stereo not drawn) [P2.76]: the mortality at 400 ppm in experiment [1] is over 80%.
Take `CON1CCC2(CC1)C(O)=C(c1c(C)cc(Br)cc1C)C(=O)N2OC` [P2.79]: the mortality at 400 ppm in experiment [1] and in experiment [2] was over 80% in each case. Moreover, the mortality at 200 ppm in experiment [5] was at least 80%.
Take `CON1CCC2(CC1)C(O)=C(c1c(C)cc(C)cc1C)C(=O)N2OCC1CCCC1` [P2.85]: the mortality at 400 ppm in experiment [1], in experiment [3] and in experiment [2] was over 80% each time. Also, the mortality at 200 ppm in experiment [5] was at least 80%.
On to `CCC1(CON2C(=O)C(c3c(C)cc(C)cc3C)=C(O)C23CCN(OC)CC3)COC1` [P2.86], for which the mortality at 400 ppm in experiment [1] and in experiment [3] was over 80% each time. Also, the mortality at 200 ppm in experiment [5] is at least 80%.
As to `CON1CCC2(CC1)C(O)=C(c1c(C)cc(C)cc1Cl)C(=O)N2OC1CCCO1` (stereo not drawn) [P2.94], the mortality at 400 ppm in experiment [1], in experiment [3] and in experiment [2] was over 80% in each case. In experiment [5], the mortality at 200 ppm is at least 80%.
As for `CON1CCC2(CC1)C(O)=C(c1c(C)cc(C)cc1C)C(=O)N2OCC1CCC1` [P2.97], the mortality at 400 ppm in experiment [1], in experiment [3] and in experiment [2] was over 80% each time. Further, in experiment [5], the mortality at 200 ppm was at least 80%.
Take `CON1CCC2(CC1)C(O)=C(c1c(C)cc(C)cc1C)C(=O)N2OCC1CCCOC1` (stereo not drawn) [P2.100]: the mortality at 400 ppm in experiment [1], in experiment [3] and in experiment [2] was over 80% in each case.
